Test results published in publication PMC4669708 (Cell Death & Disease, 2015).

Assays:
HT-29 MLKL S358D cells = assay: Cell death driven by doxycycline-induced MLKL S358D expression; format: cell-based, human; settings: 2 μg/ml doxycycline overnight; 10 μM NSA, 0.5 μM ponatinib
Experimental: (§1) Cells were seeded in 12-, 24- or 96-well plates at proper cell density. For necroptosis or apoptosis assays, cells were incubated with the indicated compound combinations at concentrations stated for 14–24 h. Smac mimetic and z-VAD-FMK were added 30–60 min before treatment with TNF-α, FasL or TRAIL. Cell viability was determined using CellTiter Glo Luminescent Cell Viability Assay (Promega, Fitchburg, WI, USA) according to the manufacturer's instructions. Luminescence was recorded with a SpectraMax M5Multimode plate reader (Molecular Devices, Sunnyvale, CA, USA). For flow cytometry-based determination of viability, cells were harvested, collected by centrifugation, washed once and resuspended in staining buffer (1 × PBS, 10% FBS). Cells were incubated with 0.5 μg/ml PI for 10 min at room temperature (RT) in the dark. Flow cytometric analyses were performed on an LSR Fortessa (BD Biosciences) and analyzed with FlowJo software version 7.6.3 (Tree Star Inc, Ashland, OR, USA). Cell size was evaluated by forward scatter. PI-negative normal-sized cells were considered living and data were normalized to values of untreated controls. For detection of apoptosis, cells were resuspended in Annexin V Binding Buffer (BioLegend, San Diego, CA, USA) and stained with 0.5 μg/ml PI and Alexa Fluor 647 Annexin V (BioLegend) according to manufacturer's instructions.

endogenous RIPK3 = target: T1, endogenous RIPK3 (Homo sapiens, UniProt Q9Y572); assay: Cellular thermal shift assay (CETSA); format: cell-based; settings: FADD-deficient Jurkat cells, 0.5 μM, 3 h
T1 construct: endogenous in cells; host or cells: FADD-deficient Jurkat I2.1
Experimental: Drug target engagement in cells, causing stabilization of the respective protein, was analyzed essentially as described previously.[55] […] After treatment, cells were collected by centrifugation and resuspended in 1x PBS. The cell suspension was aliquoted into PCR tubes and heated for 3 min at 42, 46, 50, 54, 58 or 62 °C. Subsequently, cells were lysed by three consecutive freeze–thaw cycles using liquid nitrogen. The soluble fraction was separated from precipitated proteins by centrifugation at 13000 r.p.m. and 4 °C for 20 min. The supernatant, containing the soluble proteins, was transferred to a fresh tube and analyzed by immunoblotting.

[1] = tested on: FADD-deficient Jurkat cells; assay: Flow cytometry viability (propidium iodide / forward scatter), TNFα-induced necroptosis; format: cell-based; settings: human, 6 h
Experimental: as §1

[2] = tested on: FADD-deficient Jurkat cells; assay: TNF-α-induced necroptosis, cell viability (CellTiter Glo); format: cell-based, human; settings: 10 ng/ml TNF-α overnight
Experimental: as §1, with “controls.” for “controls. For detection of apoptosis, cells were resuspended in Annexin V Binding Buffer (BioLegend, San Diego, CA, USA) and stained with 0.5 μg/ml PI and Alexa Fluor 647 Annexin V (BioLegend) according to manufacturer's instructions.”
The compounds were transferred into drug plates by acoustic droplet ejection using an Echo 520 liquid handler (LABCYTE, Sunnyvale, CA, USA). Necroptosis was induced in FADD-deficient Jurkat cells by addition of 10 ng/ml TNF-α immediately before seeding onto drug plates at a density of 1x10^4 cells/well. After 16 h incubation, cell viability was determined using CellTiter Glo Luminescent Cell Viability Assay according to manufacturer's instructions. Data analysis was performed by calculating a percentage of control to normalize for variability across different plates. The signal for the negative control DMSO wells was set to 0%, whereas the wells containing the positive control Nec-1 were put to 100% for each plate individually.

T1 sequence (Q9Y572 whole entry): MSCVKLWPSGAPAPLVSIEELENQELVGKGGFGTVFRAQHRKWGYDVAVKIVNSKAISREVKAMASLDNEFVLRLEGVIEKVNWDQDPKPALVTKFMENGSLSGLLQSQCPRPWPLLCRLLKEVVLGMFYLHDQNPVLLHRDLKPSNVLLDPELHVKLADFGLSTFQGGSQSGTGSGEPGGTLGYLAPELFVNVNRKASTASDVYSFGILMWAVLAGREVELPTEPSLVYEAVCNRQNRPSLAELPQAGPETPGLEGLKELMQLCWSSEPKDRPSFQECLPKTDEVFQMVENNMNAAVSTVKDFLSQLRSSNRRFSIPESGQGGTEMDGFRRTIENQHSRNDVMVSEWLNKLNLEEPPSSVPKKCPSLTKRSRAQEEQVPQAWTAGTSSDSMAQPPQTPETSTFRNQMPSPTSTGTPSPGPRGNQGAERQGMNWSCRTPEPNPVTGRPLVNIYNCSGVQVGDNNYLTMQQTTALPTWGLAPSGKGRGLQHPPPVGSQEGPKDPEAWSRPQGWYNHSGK

SMILES: Cc1ccc(C(=O)Nc2ccc(CN3CCN(C)CC3)c(C(F)(F)F)c2)cc1C#Cc1cnc2cccnn12 [ponatinib, Ponatinib]
- block of cell death driven by MLKL S358D expression (HT-29 MLKL S358D cells): did not prevent cell death
- RIPK3 thermostability (target engagement) (endogenous RIPK3): led to a shift in the RIPK3 thermostability curve
- viable cells [1]: 79,3%
- rescue of cell viability in drug screen ([2]; 0.5 and 1.5 μM): robustly rescued cell viability at both concentrations
- EC50 ([2]; Homo sapiens, Jurkat, CellTiter Glo, read-out: EC50 for inhibiting necroptosis): 89 nM

SMILES: Cc1ccc(C(=O)Nc2ccc(CN3CCN(CCCN)CC3)c(C(F)(F)F)c2)cc1C#Cc1cnc2cccnn12 [c-ponatinib]
- block of necroptosis compared with ponatinib ([2]; Figure 3b): blocked necroptosis with only a minor reduction in potency
